Reference: patent US10233177B2, “TRPV1 vanilloid receptor antagonists with a bicyclic portion” (Serentrix LLC, priority 2010, dated 2019)
Like-named read-outs stand apart in the source and are kept apart here.

Key:
TRPV1 = TRPV1 (Rattus norvegicus (Rat), UniProt O35433); assay: Ca2+ fluorescence measurements in cultured rat dorsal root ganglia neurons (capsaicin-induced calcium uptake); type: cell-based; conditions: rat DRG neurons; for inhibition at 0.3 µM: DRG neuron
[1] = test system: CCI-induced mechanical hyperalgesia; assay: CCI-induced mechanical hyperalgesia (Randall-Selitto paw pressure); type: in vivo; conditions: rat CCI, 30 μmol/kg oral
Protocol: CCI-Induced Mechanical Hyperalgesia
Male SD rats (Charles River, Italy) weighing 250 g were anaesthetized with sodium pentobarbital (60 mg/kg, intraperitoneal (i.p.), 0.1 ml/10 g) and, under a dissecting microscope, the right common sciatic nerve was exposed at the level of the mid thigh and, proximal to the trifurcation of the nerve; four ligatures (4/0 chromic silk, Ethicon) were loosely tied around it, at about 0.5 mm spacing, until they elicited a brief twitch in the respective hind, taking care to preserve epineural circulation. Sham-operated animals (sciatic exposure without ligation) were used as controls. 14 days after the surgery, mechanical hyperalgesia was assessed using an analgesimeter (Ugo Basile, Italy, Randall-Selitto analgesic apparatus). This device generated a mechanical force on the affected paw and the nociceptive threshold was defined as the force (in g) at which the rat withdraws the paw (with a cut-off of 450 g). Two baseline measurement values were obtained 75 and 45 min before the actual test. After the second baseline measurement, animals were randomly allocated to the different treatment groups. Paw pressure test was performed 0, 75, 120, 165, 210 and 300 min after the oral administration of the compounds. All tested compounds were orally administrated (30 μmol/kg/10 ml) to rats by gavage.

[2] = test system: CFA-induced tactile allodynia; assay: CFA-induced tactile allodynia in rats (von Frey filaments); type: in vivo; conditions: rat, 30 μmol/kg oral
Protocol: CFA-Induced Tactile Allodynia in Rats
Male SD rats (Charles River, Italy) weighing 100 to 250 g were put into a clean plastic cage on an elevated glass plate for 30 min before the test. This lets the animals accommodate to their new environment before testing. Complete Freund's adjuvant (CFA, 50 μl) was injected into the plantar surface of the right hind paw. Tactile stimulation was performed with von Frey filaments (from 0.07 to 26 g). All antagonists were orally administered 22 hours after to the CFA administration. Von Frey filaments were applied 30, 60, 120, 180, 240, 300 and 360 min after compound administrations. Median 50% (EG50) threshold of von Frey filaments was calculated by using the up-down method as previously described. All tested compounds were suspended in 0.5% Methocel and 2.5% Tween80 and orally administrated (30 μmol/kg/10 ml) to rats by gavage 24 hours after the CFA treatment. CFA was injected into the plantar surface of a rat's hind paw at a fixed dose of 50 μl by the use of a micro syringe.

[3] = test system: CFA-induced thermal hyperalgesia; assay: CFA-induced thermal hyperalgesia in rats (Hargreaves' test); type: in vivo; conditions: rat, 30 μmol/kg oral; read-out: reversal of CFA-induced thermal hyperalgesia (maximal reversal activity / % of reversion)
Excerpt: CFA-Induced Thermal Hyperalgesia in Rats
This method was used for the determination of acute nociceptive thermal threshold and combines a chemical stimulus and heat for measuring pain sensitivity. Male SD rats (Charles River, Italy) weighing 100 to 250 gr. were used. Anti-hyperalgesic effects were investigated by using the Hargreaves' test. Complete Freund's Adjuvant (CFA; Sigma, USA) was used to induce thermal hyperalgesia. CFA contains killed Mycobacterium tuberculosis and is designed to provide continuous release of antigens necessary for stimulating a strong, persistent immune response. This effect causes the reduction of the hind paw withdrawal response latency induced by heat during the Hargreaves' test. Thermal stimulation was performed 30, 60, 120 and 180 (240 min only if needed) minutes after the oral administration of the antagonists. During the CFA-induced thermal hyperalgesia experiments two different solubilization protocols were used: when items presented an amino group, a pH=2 aqueous solution of HCl and 2.5% Tween80 was used; otherwise molecules were suspended in 0.5% Methocel and 2.5% Tween80. Compounds were orally administrated (30 μmol/kg/10 ml) to rats 24 hours after the CFA treatment. CFA was injected into the plantar surface of a rat's hind paw at a fixed dose of 50 μl by the use of a micro syringe.

[4] = Table 1, formula IA-C, 300 nM against calcium uptake induced by 30 nM capsaicin, read-out: % inhibition at 300 nM
[5] = capsaicin-induced calcium uptake, read-out: inhibition of the calcium uptake
[6] = 300 nM, read-out: abolition of capsaicin response at 300 nM
[7] = Table 1, against capsaicin-evoked [Ca2+]i mobilization, read-out: IC50
[8] = read-out: IC50 against capsaicin-evoked [Ca2+]i mobilization

TRPV1, sequence (O35433 whole entry): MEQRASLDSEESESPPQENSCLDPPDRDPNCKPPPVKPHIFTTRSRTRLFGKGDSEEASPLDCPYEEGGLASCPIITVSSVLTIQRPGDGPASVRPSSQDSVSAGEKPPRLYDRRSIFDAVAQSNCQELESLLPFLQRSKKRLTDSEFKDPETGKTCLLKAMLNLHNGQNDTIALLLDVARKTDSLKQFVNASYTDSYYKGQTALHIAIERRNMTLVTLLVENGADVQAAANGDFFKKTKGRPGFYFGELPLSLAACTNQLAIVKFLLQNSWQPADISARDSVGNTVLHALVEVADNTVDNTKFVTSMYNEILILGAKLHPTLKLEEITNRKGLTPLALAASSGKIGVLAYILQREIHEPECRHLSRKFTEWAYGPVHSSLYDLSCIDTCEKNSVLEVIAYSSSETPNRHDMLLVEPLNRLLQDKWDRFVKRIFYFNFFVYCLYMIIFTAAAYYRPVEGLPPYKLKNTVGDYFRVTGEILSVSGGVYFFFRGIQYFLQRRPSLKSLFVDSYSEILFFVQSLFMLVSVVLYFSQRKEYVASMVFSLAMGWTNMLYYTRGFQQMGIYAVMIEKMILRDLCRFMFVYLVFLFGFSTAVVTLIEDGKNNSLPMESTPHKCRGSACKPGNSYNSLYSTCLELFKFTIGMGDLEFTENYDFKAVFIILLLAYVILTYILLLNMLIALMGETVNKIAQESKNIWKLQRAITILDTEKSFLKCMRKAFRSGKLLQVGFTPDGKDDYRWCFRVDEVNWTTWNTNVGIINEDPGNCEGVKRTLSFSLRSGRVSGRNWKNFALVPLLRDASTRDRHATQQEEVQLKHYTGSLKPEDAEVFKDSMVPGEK

Row | SMILES | inhibition at 0.3 µM (TRPV1; [4]) [%] | inhibition at 0.3 µM (TRPV1; [5]) [%] | inhibition at 0.3 µM (TRPV1; [6]) [%] | IC50 (TRPV1; [7]) [nM] | other results
1 | O=C(NCc1ccc(C(F)(F)F)cc1)Nc1cccc2[nH]c(=O)[nH]c12 [Example 1, 1-(4-(trifluoromethyl)benzyl)-3-(2,3-dihydro-2-oxo-1H-benzo[d]imidazol-4-yl)urea] | 84 | > 80 |  |  | anti-hyperalgesic activity (in words) [1]: relevant and long lasting anti-hyperalgesic activity; reversal of hyperalgesia within the first 2 hours [1]: at least 80%
2 | O=C(NCc1ccc(C(F)(F)F)cc1N1CCCCC1)Nc1cccc2[nH]c(=O)[nH]c12 [Example 6, 1-(4-(trifluoromethyl)-2-(piperidin-1-yl)benzyl)-3-(2,3-dihydro-2-oxo-1H-benzo[d]imidazol-4-yl)urea] | 95 | > 80 | ~100 | 0.51 | IC50 (TRPV1; [8]): 0.51 nM; anti-hyperalgesic activity (in words) [1]: relevant and long lasting anti-hyperalgesic activity; reversal of hyperalgesia within the first 2 hours [1]: at least 80%
3 | O=C(NCc1ccc(Cl)cc1N1CCCC1)Nc1cccc2[nH]c(=O)[nH]c12 [Example 12, 1-(4-chloro-2-(pyrrolidin-1-yl)benzyl)-3-(2,3-dihydro-2-oxo-1H-benzo[d]imidazol-4-yl)urea] | 88 | > 80 |  | 6 | IC50 (TRPV1; [8]): 6 nM; duration of effect on CFA-induced tactile allodynia, post-treatment [2]: up to 300 min; reversal of CFA-induced tactile allodynia [2]: 62%; inhibition in vivo at 30 µmol/kg [3]: 65%
4 | O=C(NCc1ccc(Cl)cc1N1CCCCC1)Nc1cccc2[nH]c(=O)[nH]c12 [Example 13, 1-(4-chloro-2-(piperidin-1-yl)benzyl)-3-(2,3-dihydro-2-oxo-1H-benzo[d]imidazol-4-yl)urea] | 96 | > 80 | ~100 | 1.8 | IC50 (TRPV1; [8]): 1.8 nM; inhibition in vivo at 30 µmol/kg [3]: 60%; anti-hyperalgesic activity (in words) [1]: relevant and long lasting anti-hyperalgesic activity; reversal of hyperalgesia within the first 2 hours [1]: at least 80%
5 | O=C(NCc1ccc(C(F)(F)F)o1)Nc1cccc2[nH]c(=O)[nH]c12 [Example 23, 1-(5-(trifluoromethyl-furan-2-yl)-methyl)-3-(2,3-dihydro-2-oxo-1H-benzo[d]imidazol-4-yl)urea] | 82 | > 80 |  | 108 | inhibition in vivo at 30 µmol/kg [3]: 46%
6 | O=C1COc2c(cccc2NC(=O)NCc2ccc(C(F)(F)F)cc2N2CCCC2)N1 [Example 47, 1-(4-(trifluoromethyl)-2-(pyrrolidin-1-yl)benzyl)-3-(3,4-dihydro-3-oxo-2H-benzo[b][1,4]oxazin-8-yl)urea] | 100 | > 80 | ~100 | 0.7 | IC50 (TRPV1; [8]): 0.7 nM; inhibition in vivo at 30 µmol/kg [3]: 46%
7 | O=C1COc2c(cccc2NC(=O)NCc2ccc(C(F)(F)F)cc2N2CCCCC2)N1 [Example 48, 1-(4-(trifluoromethyl)-2-(piperidin-1-yl)benzyl)-3-(3,4-dihydro-3-oxo-2H-benzo[b][1,4]oxazin-8-yl)urea] | 100 | > 80 | ~100 | 0.13 | IC50 (TRPV1; [8]): 0.13 nM; inhibition in vivo at 30 µmol/kg [3]: 45%
8 | Cc1ccc(CNC(=O)Nc2cccc3c2OCC(=O)N3)cc1 [Example 79, 1-(3-oxo-4H-1,4-benzoxazin-8-yl)-3-(p-tolylmethyl)urea] | 54 |  |  |  | 
9 | Cc1ccc(CNC(=O)Nc2cccc3c2OCC(=O)N3)c(N2CCCCC2)n1 [Example 80, 1-[[6-methyl-2-(1-piperidyl)-3-pyridyl]methyl]-3-(3-oxo-4H-1,4-benzoxazin-8-yl)urea] | 95 | > 80 | ~100 |  | 

Second part, led by results:

Row | inhibition at 0.3 µM (TRPV1; [4]) [%] | inhibition at 0.3 µM (TRPV1; [5]) [%] | inhibition at 0.3 µM (TRPV1; [6]) [%] | IC50 (TRPV1; [7]) [nM] | SMILES | other results
10 | 100 | > 80 | ~100 |  | CC(C)Oc1cc(C(F)(F)F)ccc1CNC(=O)Nc1cccc2c1OCC(=O)N2 [Example 81, 1-[[2-isopropoxy-4-(trifluoromethyl)phenyl]methyl]-3-(3-oxo-4H-1,4-benzoxazin-8-yl)urea] | 
11 | 90 | > 80 |  | 54 | COc1nc(C(F)(F)F)ccc1CNC(=O)Nc1cccc2c1OCC(=O)N2 [Example 82, 1-[[2-methoxy-6-(trifluoromethyl)-3-pyridyl]methyl]-3-(3-oxo-4H-1,4-benzoxazin-8-yl)urea] | 
12 | 57 |  |  |  | O=C1COc2c(cccc2NC(=O)NCc2ccc(C(F)(F)F)cn2)N1 [Example 83, 1-(3-oxo-4H-1,4-benzoxazin-8-yl)-3-[[5-(trifluoromethyl)-2-pyridyl]methyl]urea] | 
13 | 61 |  |  |  | Cc1ccc(CNC(=O)Nc2cccc3c2OCC(=O)N3)c(OC(C)C)c1 [Example 84, 1-[(2-isopropoxy-4-methyl-phenyl)methyl]-3-(3-oxo-4H-1,4-benzoxazin-8-yl)urea] | 
14 | 79 |  |  |  | Cc1ccc(CNC(=O)Nc2cccc3c2OCC(=O)N3)c(OC(C)C)n1 [Example 85, 1-[(2-isopropoxy-6-methyl-3-pyridyl)methyl]-3-(3-oxo-4H-1,4-benzoxazin-8-yl)urea] | 
15 | 100 | > 80 | ~100 | 17 | CN(C)c1nc(C(F)(F)F)ccc1CNC(=O)Nc1cccc2c1OCC(=O)N2 [Example 86, 1-[[2-dimethylamino-6-(trifluoromethyl)-3-pyridyl]methyl]-3-(3-oxo-4H-1,4-benzoxazin-8-yl)urea] | 
16 | 100 | > 80 | ~100 | 9 | O=C1COc2c(cccc2NC(=O)NCc2ccc(C(F)(F)F)nc2N2CCCC2)N1 [Example 87, 1-(3-oxo-4H-1,4-benzoxazin-8-yl)-3-[[2-pyrrolidin-1-yl-6-(trifluoromethyl)-3-pyridyl]methyl]urea] | 
17 | 75 |  |  |  | O=C1COc2c(cccc2NC(=O)NCc2ccc(C(F)(F)F)cc2-n2ccnc2)N1 [Example 88, 1-[[2-(imidazol-1-yl)-4-(trifluoromethyl)phenyl]methyl]-3-(3-oxo-4H-1,4-benzoxazin-8-yl)urea] | 
18 | 92 | > 80 |  | 19.8 | CC(C)(C)c1ccc(CNC(=O)Nc2cccc3c2OCC(=O)N3)cc1 [Example 89, 1-[(4-tert-butylphenyl)methyl]-3-(3-oxo-4H-1,4-benzoxazin-8-yl)urea] | 
19 | 47 |  |  |  | Cc1ccc(CNC(=O)Nc2cccc3c2OCC(=O)N3)c(N2CCCC2)c1 [Example 90, 1-[(4-methyl-2-pyrrolidin-1-yl-phenyl)methyl]-3-(3-oxo-4H-1,4-benzoxazin-8-yl)urea] | 
20 | 40 |  |  |  | CN(C)CCOc1nc(C(F)(F)F)ccc1CNC(=O)Nc1cccc2c1OCC(=O)N2 [Example 91, 1-[[2-(2-dimethylaminoethoxy)-6-(trifluoromethyl)-3-pyridyl]methyl]-3-(3-oxo-4H-1,4-benzoxazin-8-yl)urea] | 
21 | 12 |  |  |  | CN(C)CCOc1cc(C(F)(F)F)ccc1CNC(=O)Nc1cccc2c1OCC(=O)N2 [Example 92, 1-[[2-(2-dimethylaminoethoxy)-4-(trifluoromethyl)phenyl]methyl]-3-(3-oxo-4H-1,4-benzoxazin-8-yl)urea] | 
